Assay results as given in patent publication US12077503B2, “Substituted cyclic amides and their use as herbicides” (FMC CORPORATION, priority 2015, dated 2024).

Columns and labels:
Type in all cases: in vivo
[1] = tested on: Kochia (Kochia scoparia); assay: Test A preemergence; details: Bassia scoparia, pre-emergence, 240 h, 0 to 100 scale where 0 is no effect and 100 is complete control, read-out: Kochia plant response rating
Summary of the method: (§1)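 Greenhouse, ~10 d after spray; visual injury vs untreated controls, 0 = no effect, 100 = complete control. Preemergence: directed soil spray over planted seeds. Postemergence: plants 2–10 cm, 1–2 leaf stage. Loam/sand blend. Compound in non-phytotoxic solvent with surfactant.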

[2] = tested on: barnyardgrass (Echinochloa crus-galli); assay: Test A preemergence; details: Echinochloa crus-galli, pre-emergence, 240 h, 0 to 100 scale where 0 is no effect and 100 is complete control, read-out: Barnyardgrass plant response rating
Summary of the method: as §1

[3] = tested on: giant foxtail (Setaria faberii); assay: Test A preemergence; details: Setaria faberi, pre-emergence, 240 h, 0 to 100 scale where 0 is no effect and 100 is complete control, read-out: Foxtail, Giant plant response rating
Summary of the method: as §1

[4] = tested on: pigweed (Amaranthus retroflexus); assay: Test A preemergence; details: Amaranthus retroflexus, pre-emergence, 240 h, 0 to 100 scale where 0 is no effect and 100 is complete control, read-out: Pigweed plant response rating
[5] = tested on: ragweed (common ragweed, Ambrosia elatior); assay: Test A preemergence; details: Ambrosia artemisiifolia, pre-emergence, 240 h, 0 to 100 scale where 0 is no effect and 100 is complete control, read-out: Ragweed plant response rating
Summary of the method: as §1

[6] = tested on: ryegrass, Italian (Italian ryegrass, Lolium multiflorum); assay: Test A preemergence; details: Lolium multiflorum, pre-emergence, 240 h, 0 to 100 scale where 0 is no effect and 100 is complete control, read-out: Ryegrass, Italian plant response rating
Summary of the method: as §1

[7] = tested on: Galium (catchweed bedstraw, Galium aparine); assay: Test A postemergence; details: Galium, post-emergence, 240 h, Postemergence, read-out: Galium plant response rating (0 to 100 scale)
Summary of the method: as §1

[8] = tested on: Kochia (Kochia scoparia); assay: Test A postemergence; details: Bassia scoparia, post-emergence, 240 h, Postemergence, read-out: Kochia plant response rating (0 to 100 scale)
Summary of the method: as §1

[9] = tested on: barnyardgrass (Echinochloa crus-galli); assay: Test A postemergence; details: Echinochloa crus-galli, post-emergence, 240 h, Postemergence
Summary of the method: as §1

[10] = tested on: blackgrass (Alopecurus myosuroides); assay: Test A postemergence; details: Alopecurus myosuroides, post-emergence, 240 h, Postemergence, read-out: Blackgrass plant response rating (0 to 100 scale)
Summary of the method: as §1

[11] = tested on: corn (Zea mays); assay: Test A postemergence; details: Zea mays, post-emergence, 240 h, Postemergence, read-out: Corn plant response rating (0 to 100 scale)
Summary of the method: as §1

[12] = tested on: giant foxtail (Setaria faberii); assay: Test A postemergence; details: Setaria faberi, post-emergence, 240 h, Postemergence, read-out: Foxtail, Giant plant response rating (0 to 100 scale)
Summary of the method: as §1

[13] = tested on: pigweed (Amaranthus retroflexus); assay: Test A postemergence; details: Amaranthus retroflexus, post-emergence, 240 h, Postemergence, read-out: Pigweed plant response rating (0 to 100 scale)
Summary of the method: as §1

[14] = tested on: ragweed (common ragweed, Ambrosia elatior); assay: Test A postemergence; details: Ambrosia artemisiifolia, post-emergence, 240 h, Postemergence, read-out: Ragweed plant response rating (0 to 100 scale)
Summary of the method: as §1

[15] = tested on: ryegrass, Italian (Italian ryegrass, Lolium multiflorum); assay: Test A postemergence; details: Lolium multiflorum, post-emergence, 240 h, Postemergence, read-out: Ryegrass, Italian plant response rating (0 to 100 scale)
Summary of the method: as §1

[16] = tested on: wheat (Triticum aestivum); assay: Test A postemergence; details: Triticum aestivum, post-emergence, 240 h, Postemergence, read-out: Wheat plant response rating (0 to 100 scale)
Summary of the method: as §1

[17] = tested on: barnyardgrass (Echinochloa crus-galli); assay: Test B flooded paddy test; details: Echinochloa crus-galli, 250 g ai/ha, Flood; 0 to 100 scale where 0 is no effect and 100 is complete control; read-out: Barnyardgrass plant response rating
Summary of the method: (§2)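 Flooding to 3 cm over soil accompanied treatment, which consisted of adding compound to the standing water around 2-leaf plants; depth was then maintained. Visual assessment versus controls followed at 13 to 15 d (scale 0–100, 0 meaning no effect).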

[18] = tested on: ducksalad (Heteranthera limosa); assay: Test B flooded paddy test; details: Heteranthera limosa, 250 g ai/ha, Flood; 0 to 100 scale where 0 is no effect and 100 is complete control; read-out: Ducksalad plant response rating
Summary of the method: as §2

[19] = tested on: rice (Oryra sativa); assay: Test B flooded paddy test; details: Oryza sativa, 250 g ai/ha, Flood; 0 to 100 scale where 0 is no effect and 100 is complete control; read-out: Rice plant response rating
Summary of the method: as §2

[20] = tested on: sedge, umbrella (small-flower umbrella sedge, Cyperus difformis); assay: Test B flooded paddy test; details: Cyperus difformis, 250 g ai/ha, Flood; 0 to 100 scale where 0 is no effect and 100 is complete control; read-out: Sedge, Umbrella plant response rating
Summary of the method: as §2

[21] = 125 g ai/ha, preemergence, visual injury rating, approximately 10 d
[22] = 125 g ai/ha, visual rating about 10 d after treatment
[23] = 31 g ai/ha, 0 is no effect, 100 is complete control

O=C(Nc1cccc(F)c1F)[C@H]1C(=O)N(CC(F)F)C[C@@H]1c1cccc(C(F)(F)F)c1 [Compound 1296]
0%: pest or weed control at 31 g/ha ([1]; 31 g ai/ha, Preemergence) | pest or weed control at 125 g/ha [1, 21] | pest or weed control at 31 g/ha ([4]; 31 g ai/ha, Preemergence) | pest or weed control at 125 g/ha [4, 21] | pest or weed control at 31 g/ha ([5]; 31 g ai/ha, Preemergence) | pest or weed control at 125 g/ha [5, 21] | pest or weed control at 31 g/ha ([6]; 31 g ai/ha, Preemergence) | pest or weed control at 125 g/ha [6, 21] | pest or weed control at 125 g/ha [7, 22] | pest or weed control at 31 g/ha [7, 23] | pest or weed control at 125 g/ha [8, 22] | pest or weed control at 31 g/ha [8, 23] | pest or weed control at 31 g/ha ([9]; 31 g ai/ha, 0 is no effect, 100 is complete control, read-out: Barnyardgrass plant response rating (0 to 100 scale)) | pest or weed control at 125 g/ha [10, 22] | pest or weed control at 31 g/ha [10, 23] | plant injury at 125 g/ha [11, 22] | plant injury at 31 g/ha [11, 23] | pest or weed control at 31 g/ha [12, 23] | pest or weed control at 125 g/ha [13, 22] | pest or weed control at 31 g/ha [13, 23] | pest or weed control at 125 g/ha [14, 22] | pest or weed control at 31 g/ha [14, 23] | pest or weed control at 125 g/ha [15, 22] | pest or weed control at 31 g/ha [15, 23] | plant injury at 125 g/ha [16, 22] | plant injury at 31 g/ha [16, 23] | pest or weed control at 250 g/ha [18] | pest or weed control at 250 g/ha [20]
30%: pest or weed control at 125 g/ha ([9]; 125 g ai/ha, visual rating about 10 d after treatment, read-out: Barnyardgrass plant response rating (0 to 100 scale, 0 no effect, 100 complete control)) | pest or weed control at 125 g/ha [12, 22] | pest or weed control at 250 g/ha [19]
20%: pest or weed control at 31 g/ha ([2]; 31 g ai/ha, Preemergence) | pest or weed control at 31 g/ha ([3]; 31 g ai/ha, Preemergence)
60%: pest or weed control at 125 g/ha [3, 21]
70%: pest or weed control at 125 g/ha [2, 21]
15%: pest or weed control at 250 g/ha [17]
